From patent publication US11999727B2 (Tango Therapeutics, Inc., priority 2020, dated 2024)

Tests used:
[1] = test system: HAP1 MTAP-intact cell line; experiment: SDMA in-cell western assay, HAP1 MTAP-intact; type: cell-based; details: Homo sapiens, HAP1, SDMA in-cell western, HAP1 MTAP-intact; read-out: MTAP HAP1 intact IC50
Outline: (§1)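 Isogenic HAP1 pair: the MTAP-intact line expresses endogenous MTAP, and the deleted line is MTAP-null. Symmetric dimethylarginine was detected by in-cell western and IC50 values derived for each line.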

PRMT5 [2] = target: T1, PRMT5 (Homo sapiens, UniProt O14744); experiment: PRMT5 biochemical IC50 assay with MTA as cofactor; details: PRMT5, MTA as cofactor; read-out: MTA IC50
T1 construct: purchased Viva (custom protein)
T1 sequence (O14744 whole entry): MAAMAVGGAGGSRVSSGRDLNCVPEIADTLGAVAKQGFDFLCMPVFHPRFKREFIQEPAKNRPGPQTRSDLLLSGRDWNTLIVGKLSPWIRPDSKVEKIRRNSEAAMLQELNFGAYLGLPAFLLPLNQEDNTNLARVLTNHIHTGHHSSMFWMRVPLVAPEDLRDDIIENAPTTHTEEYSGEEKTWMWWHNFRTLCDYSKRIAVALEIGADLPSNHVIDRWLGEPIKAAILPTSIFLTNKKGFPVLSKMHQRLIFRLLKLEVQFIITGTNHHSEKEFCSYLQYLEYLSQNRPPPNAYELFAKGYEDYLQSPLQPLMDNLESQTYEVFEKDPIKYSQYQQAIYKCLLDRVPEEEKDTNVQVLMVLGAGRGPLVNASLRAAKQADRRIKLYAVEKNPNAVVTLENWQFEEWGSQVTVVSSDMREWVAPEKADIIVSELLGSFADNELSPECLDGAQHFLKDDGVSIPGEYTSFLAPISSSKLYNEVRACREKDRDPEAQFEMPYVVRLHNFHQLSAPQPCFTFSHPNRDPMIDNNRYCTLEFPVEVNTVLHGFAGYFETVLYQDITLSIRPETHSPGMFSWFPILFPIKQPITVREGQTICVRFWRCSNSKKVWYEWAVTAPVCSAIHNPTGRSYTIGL
T1 sequence (Q9BQA1 whole entry partner): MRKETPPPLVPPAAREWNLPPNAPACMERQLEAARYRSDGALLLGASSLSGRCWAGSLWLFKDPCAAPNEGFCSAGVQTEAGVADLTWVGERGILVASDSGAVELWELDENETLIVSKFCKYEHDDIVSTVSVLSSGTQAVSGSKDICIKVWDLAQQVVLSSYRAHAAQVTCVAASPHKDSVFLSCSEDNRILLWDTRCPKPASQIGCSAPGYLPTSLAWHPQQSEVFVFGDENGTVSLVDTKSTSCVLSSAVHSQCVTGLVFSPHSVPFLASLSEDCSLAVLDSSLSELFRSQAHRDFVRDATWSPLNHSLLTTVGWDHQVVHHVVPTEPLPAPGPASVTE

PRMT5 [3] = target: T1, PRMT5; experiment: PRMT5 biochemical IC50 assay with no cofactor; details: PRMT5, no cofactor
Description: Table 1 indicates IC50 values (μM) against PRMT5 for exemplary compounds in the presence of SAM as cofactor, with no cofactor, and with MTA as cofactor, respectively (columns 4-6). […] Ki values can be calculated from the IC50 values as described in the Examples section. As detailed in the Examples section, for the assay performed in the presence of SAM, IC50=Ki×1.5 (Ki=IC50/1.5).

PRMT5 [4] = target: T1, PRMT5; experiment: PRMT5 biochemical IC50 assay with SAM as cofactor; details: PRMT5, SAM as cofactor; read-out: SAM IC50
[5] = test system: HAP1 MTAP-deleted cell line; experiment: Viability assay, MTAP-deleted cell line; type: cell-based; details: Homo sapiens, read-out: HAP1 MTAP deleted viability
Description: Table 1 additionally indicates IC50 values in a viability assay for the MTAP-deleted cell line (column 10), indicating the effect of treatment with compound on cell survival.

[6] = test system: HAP1 MTAP-deleted cell line; experiment: SDMA in-cell western assay, HAP1 MTAP-deleted; type: cell-based; details: for IC50: Homo sapiens, HAP1, SDMA in-cell western, HAP1 MTAP-deleted; for MTAP intact/deleted ratio: SDMA in-cell western
Outline: as §1

[7] = HAP1, viability assay, MTAP-deleted cell line
[8] = read-out: HAP1 MTAP deleted IC50
[9] = IC50 ratio HAP1 MTAP-intact vs HAP1 MTAP-deleted
[10] = read-out: HAP 1 MTAP deleted IC50
[11] = IC50 ratio HAP1 MTAP-intact / HAP1 MTAP-deleted
[12] = read-out: No Cofactor/ rel IC50
[13] = HAP1, viability IC50, MTAP-deleted cell line

Row | SMILES | IC50 [1] [µM] | IC50 (PRMT5 [2]) [µM] | IC50 (PRMT5 [3]; read-out: No Cofactor/rel IC50) [µM] | IC50 (PRMT5 [4]) [µM] | IC50 [5, 7] [µM] | IC50 [6, 8] [µM] | MTAP intact/deleted ratio [6, 9] | IC50 [6, 10] [µM] | MTAP intact/deleted ratio [6, 11] | IC50 (PRMT5 [3]; [12]) [µM] | IC50 ([5]; HAP1, viability, HAP1 MTAP-deleted cell line) [µM] | IC50 [5, 13] [µM] | IC50 ([5]; HAP1, viability assay, HAP1 MTAP-deleted) [µM]
1 | CCc1cc(NC(=O)C(=O)N2C[C@@H](C)CC[C@@H]2c2ccc(NC3CCN(C)CC3)cc2)cnc1N [Compound 1112, N-(6-Amino-5-ethyl-3-pyridyl)-2-[(2R,5S)-5-methyl-2-[4-[(1-methyl-4-piperidyl)amino]phenyl]-1-piperidyl]-2-oxo-acetamide] | 0.1 to 1 | < 0.05 | < 0.05 | 0.05 to 0.5 | < 1 | < 0.1 | A (an IC50 ratio greater than or equal to 10 fold) |  |  |  |  |  | 
2 | Cc1cc(NC(=O)C(=O)N2C[C@H](C)CC[C@H]2c2cccc(S(C)(=O)=O)c2)cnc1N (single isomer, unassigned) [Compound 895] | 0.1 to 1 | < 0.05 | 0.05 to 0.5 | 0.05 to 0.5 | 1 to 10 |  |  | < 0.1 | B (an IC50 ratio greater than or equal to 3 fold but lower than 10 fold) |  |  |  | 
3 | Cc1cc(NC(=O)C(=O)N2C[C@@H](C)CC[C@@H]2c2ccc3sc(C4CCN(C5COC5)CC4)nc3c2)cnc1N [Compound 1268, N-(6-amino-5-methylpyridin-3-yl)-2-((2R,5S)-5-methyl-2-(2-(1-(oxetan-3-yl)piperidin-4-yl)benzo[d]thiazol-5-yl)piperidin-1-yl)-2-oxoacetamide] | 0.1 to 1 | < 0.05 |  | < 0.05 |  |  |  | < 0.1 | A (an IC50 ratio greater than or equal to 10 fold) | < 0.05 | < 1 |  | 
4 | Cc1cc(NC(=O)C(=O)N2C[C@H](C)CC[C@H]2c2ccc(N)cn2)cnc1N (racemic) [Compound 658, N-(6-amino-5-methyl-3-pyridyl)-2-[2-(5-amino-2-pyridyl)-5-methyl-1-piperidyl]-2-oxo-acetamide] | > 1 | 0.05 to 0.5 | 0.05 to 0.5 | 0.05 to 0.5 |  |  |  | 0.1 to 1 | A (an IC50 ratio greater than or equal to 10 fold) |  |  | > 10 | 
5 | Cc1cc(NC(=O)C(=O)N2C[C@@H](C)CC[C@@H]2c2ccc(F)c(Cl)c2)cnc1N (single isomer, unassigned) [Compound 606] | > 1 | > 0.5 | > 0.5 | > 0.5 |  |  |  | > 1 | B (an IC50 ratio greater than or equal to 3 fold but lower than 10 fold) |  |  | > 10 | 
6 | Cc1cc(NC(=O)C(=O)N2C[C@@H](C)CC[C@@H]2[C@H]2CCC[C@@H](O)C2)cnc1N (single isomer, unassigned) [Compound 566] | > 1 | 0.05 to 0.5 | 0.05 to 0.5 | > 0.5 |  |  |  | 0.1 to 1 | A (an IC50 ratio greater than or equal to 10 fold) |  |  | 1 to 10 | 
7 | CCc1cc(NC(=O)C(=O)N2C[C@@H](C)CC[C@@H]2c2ccc3c(c2)CCC(=O)N3)cnc1N (single isomer, unassigned) [Compound 729] | > 1 | > 0.5 | > 0.5 | > 0.5 |  | 0.1 to 1 |  |  | A (an IC50 ratio greater than or equal to 10 fold) |  |  |  | 1 to 10
8 | NC(=O)c1cncc(NC(=O)C(=O)N2CCCCC2c2cccs2)c1 (stereo not shown) [Compound 120, 5-[[2-Oxo-2-[2-(2-thienyl)-1-piperidyl]acetyl]amino]pyridine-3-carboxamide] | > 1 | < 0.05 |  | 0.05 to 0.5 | > 10 |  |  | 0.1 to 1 | A (an IC50 ratio greater than or equal to 10 fold) | 0.05 to 0.5 |  |  | 
9 | Cc1cc(NC(=O)C(=O)N2C[C@@H](C)CC[C@@H]2c2ccc3sc(C4CCN(CCF)CC4)nc3c2)cnc1N [Compound 1114, N-(6-amino-5-methylpyridin-3-yl)-2-((2R,5S)-2-(2-(1-(2-fluoroethyl)piperidin-4-yl)benzo[d]thiazol-5-yl)-5-methylpiperidin-1-yl)-2-oxoacetamide] | < 0.1 | < 0.05 | < 0.05 | < 0.05 | < 1 | < 0.1 | A (an IC50 ratio greater than or equal to 10 fold) |  |  |  |  |  | 
10 | Cc1cc([C@@H]2CC[C@@H](C)CN2C(=O)C(=O)Nc2cnc(N)c(C)c2)ccc1O (single isomer, unassigned) [Compound 572] | < 0.1 | 0.05 to 0.5 | 0.05 to 0.5 | < 0.05 |  |  |  | < 0.1 | A (an IC50 ratio greater than or equal to 10 fold) |  |  | < 1 | 
11 | Cc1cc(NC(=O)C(=O)N2C[C@H](C)CC[C@H]2c2cnc3[nH]ncc3c2)cnc1N (single isomer, unassigned) [Compound 549] | 0.1 to 1 | < 0.05 | 0.05 to 0.5 | 0.05 to 0.5 |  |  |  | < 0.1 | A (an IC50 ratio greater than or equal to 10 fold) |  |  | 1 to 10 | 
12 | CCc1ccc([C@H]2CC[C@H](C)CN2C(=O)C(=O)Nc2cnc(N)c(C)c2)cn1 (single isomer, unassigned) [Compound 1016] | > 1 | > 0.5 | > 0.5 | > 0.5 | > 10 |  |  | > 1 | C (an IC50 ratio of less than 3 fold) |  |  |  | 
13 | COc1ncc(NC(=O)C(=O)N2C[C@@H](C)CC[C@@H]2c2ccc(NC(C)=O)nc2)cc1C(N)=O (single isomer, unassigned) [Compound 910] | > 1 | > 0.5 | > 0.5 | > 0.5 | > 10 |  |  | > 1 | B (an IC50 ratio greater than or equal to 3 fold but lower than 10 fold) |  |  |  | 
14 | COc1cc(NC(=O)C(=O)N2C[C@@H](C)CC[C@@H]2c2ccc(F)cc2)cnc1N [Compound 979, N-(6-amino-5-methoxy-3-pyridyl)-2-[(2R,5S)-2-(4-fluorophenyl)-5-methyl-1-piperidyl]-2-oxo-acetamide] | > 1 | < 0.05 | 0.05 to 0.5 | 0.05 to 0.5 | 1 to 10 |  |  | 0.1 to 1 | A (an IC50 ratio greater than or equal to 10 fold) |  |  |  | 
15 | Cc1cc(NC(=O)C(=O)N2C[C@H](C)CC[C@H]2[C@H]2CC[C@H](O)CC2)cnc1N (single isomer, unassigned) [Compound 431] | > 1 | < 0.05 | 0.05 to 0.5 | 0.05 to 0.5 | 1 to 10 | < 0.1 |  |  | A (an IC50 ratio greater than or equal to 10 fold) |  |  |  | 
16 | Cc1cc(NC(=O)C(=O)N2C[C@H](C)CC[C@H]2c2ccc3nn(C)cc3c2)cnc1N (single isomer, unassigned) [Compound 1044] | 0.1 to 1 | < 0.05 | < 0.05 | 0.05 to 0.5 | < 1 |  |  | < 0.1 | A (an IC50 ratio greater than or equal to 10 fold) |  |  |  | 
17 | Cc1cc(NC(=O)C(=O)N2CC[C@@H](C#N)C[C@H]2c2ccccc2)cnc1N (single isomer, unassigned) [Compound 399] | > 1 | < 0.05 | 0.05 to 0.5 | 0.05 to 0.5 | 1 to 10 | < 0.1 |  |  | A (an IC50 ratio greater than or equal to 10 fold) |  |  |  | 
18 | CNc1cccc([C@H]2CCCCN2C(=O)C(=O)Nc2cnc(N)c(C)c2)c1 (single isomer, unassigned) [Compound 356] | > 1 | < 0.05 | 0.05 to 0.5 | 0.05 to 0.5 | 1 to 10 | < 0.1 |  |  | A (an IC50 ratio greater than or equal to 10 fold) |  |  |  | 
19 | COc1ncc(NC(=O)C(=O)N2C[C@@H](C)CC[C@@H]2c2ccc3sc(CN(C)C)nc3c2)cc1C(N)=O [Compound 1162, 5-(2-((2R,5S)-2-(2-((dimethylamino)methyl)benzo[d]thiazol-5-yl)-5-methylpiperidin-1-yl)-2-oxoacetamido)-2-methoxynicotinamide] | 0.1 to 1 | < 0.05 | < 0.05 | 0.05 to 0.5 | < 1 | < 0.1 | A (an IC50 ratio greater than or equal to 10 fold) |  |  |  |  |  | 
